Data taken from the supplement of paper PMC11919725.

Legend:
[1] = tested on: Primary T cells CD4+ activated; test: cytotoxicity relative to DMSO, 18 h (ratio); higher = less cell death (drugs called cytotoxic fall below 1)
Procedure, shortened: (§1)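 Cytotoxicity was measured by IncuCyte fluorescence imaging after confluency correction and normalisation to mean control values. Cells (Jurkat, or primary CD4+/CD8+ T cells that were naive or pre-activated 48 h with CD3/CD28 Dynabeads) received compound at 1 nM–10 µM in log10 steps for 18 h at 37 °C, 5% CO2. Imaging used ×10 magnification, five images per well, taken hourly over 3 h in 96-well plates with 250 nM final IncuCyte Cytotox Dye in 100 µl of suspension.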

[2] = tested on: Jurkat; test: as above
Procedure, shortened: as §1

[3] = tested on: Primary T cells CD8+ activated; test: as above
Procedure, shortened: as §1

[4] = tested on: Primary T cells CD4+ naive; test: as above
Procedure, shortened: as §1

[5] = tested on: Primary T cells CD8+ naive; test: as above
Procedure, shortened: as §1

[6] = tested on: Primary T cells CD4+ activated; test: metabolic activity relative to DMSO, 18 h (ratio); higher = more viable
Procedure, shortened: (§2)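 Naive or CD3/CD28 Dynabead-activated (48 h) primary CD4+/CD8+ T cells, or Jurkat cells, received compound at 1 nM–10 µM for 18 h. Readout used alamarBlue at 10% v/v final, with fluorescence taken after 3.5 h. Metabolic activity is given relative to mean vehicle control values.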

[7] = tested on: Jurkat; test: as above
Procedure, shortened: as §2

[8] = tested on: Primary T cells CD8+ activated; test: as above
Procedure, shortened: as §2

[9] = tested on: Primary T cells CD4+ naive; test: as above
Procedure, shortened: as §2

[10] = tested on: Primary T cells CD8+ naive; test: as above
Procedure, shortened: as §2

[11] = tested on: Primary T cells CD4+ activated; test: confluency relative to DMSO, 18 h (ratio); higher = more viable
Procedure, shortened: (§3)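 Naive or CD3/CD28 Dynabead-activated (48 h) primary CD4+/CD8+ T cells, or Jurkat cells, received compound at 1 nM–10 µM for 18 h at 37 °C. Confluency was measured by IncuCyte phase-contrast imaging with the Basic Analyzer and normalised to the mean of the control wells. Imaging used 100 µl of suspension per well in 96-well plates with IncuCyte Cytotox Dye and alamarBlue, at ×10 with five images per well every hour for 3 h.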

[12] = tested on: Jurkat; test: as above
Procedure, shortened: as §3

[13] = tested on: Primary T cells CD8+ activated; test: as above
Procedure, shortened: as §3

[14] = tested on: Primary T cells CD4+ naive; test: as above
Procedure, shortened: as §3

[15] = tested on: Primary T cells CD8+ naive; test: as above
Procedure, shortened: as §3

`Cc1[nH]c2ccccc2c1CCNCc1ccc(C=CC(=O)NO)cc1` [Panobinostat] gave a cytotoxicity ([1]; 1 nM) of 1.04, a cytotoxicity ([1]; 10 nM) of 1.08 and a cytotoxicity ([1]; 100 nM) of 1.32. For the same compound, the cytotoxicity ([1]; 1000 nM) was 1.5, the cytotoxicity ([1]; 10000 nM) was 0.92 and the cytotoxicity ([2]; 1 nM) was 0.94. It also gave a cytotoxicity ([2]; 10 nM) of 0.843, a cytotoxicity ([2]; 100 nM) of 0.933 and a cytotoxicity ([2]; 1000 nM) of 0.873. It also gave a cytotoxicity ([2]; 10000 nM) of 0.921, a cytotoxicity ([3]; 1 nM) of 0.993 and a cytotoxicity ([3]; 10 nM) of 0.888. For the same compound, the cytotoxicity ([3]; 100 nM) was 1.11, the cytotoxicity ([3]; 1000 nM) was 1.34 and the cytotoxicity ([3]; 10000 nM) was 1.3. The cytotoxicity ([4]; 1 nM) was 1.29, the cytotoxicity ([4]; 10 nM) was 0.906 and the cytotoxicity ([4]; 100 nM) was 1.33. It also gave a cytotoxicity ([4]; 1000 nM) of 1.19, a cytotoxicity ([4]; 10000 nM) of 0.853 and a cytotoxicity ([5]; 1 nM) of 1.34. For the same compound, the cytotoxicity ([5]; 10 nM) was 0.493, the cytotoxicity ([5]; 100 nM) was 1.16 and the cytotoxicity ([5]; 1000 nM) was 0.814. For the same compound, the cytotoxicity ([5]; 10000 nM) was 1.06, the metabolic activity ([6]; 1 nM) was 0.998 and the metabolic activity ([6]; 10 nM) was 0.826. For the same compound, the metabolic activity ([6]; 100 nM) was 0.627, the metabolic activity ([6]; 1000 nM) was 0.616 and the metabolic activity ([6]; 10000 nM) was 0.875. For the same compound, the metabolic activity ([7]; 1 nM) was 1.05, the metabolic activity ([7]; 10 nM) was 0.782 and the metabolic activity ([7]; 100 nM) was 0.681. The metabolic activity ([7]; 1000 nM) was 0.72, the metabolic activity ([7]; 10000 nM) was 0.849 and the metabolic activity ([8]; 1 nM) was 1. It also gave a metabolic activity ([8]; 10 nM) of 0.909, a metabolic activity ([8]; 100 nM) of 0.738 and a metabolic activity ([8]; 1000 nM) of 0.725. The metabolic activity ([8]; 10000 nM) was 0.778, the metabolic activity ([9]; 1 nM) was 0.856 and the metabolic activity ([9]; 10 nM) was 0.957. For the same compound, the metabolic activity ([9]; 100 nM) was 0.728, the metabolic activity ([9]; 1000 nM) was 0.726 and the metabolic activity ([9]; 10000 nM) was 0.813. It also gave a metabolic activity ([10]; 1 nM) of 0.913, a metabolic activity ([10]; 10 nM) of 0.881 and a metabolic activity ([10]; 100 nM) of 0.836. For the same compound, the metabolic activity ([10]; 1000 nM) was 0.779, the metabolic activity ([10]; 10000 nM) was 0.766 and the confluency ([11]; 1 nM) was 1.04. It also gave a confluency ([11]; 10 nM) of 1.01, a confluency ([11]; 100 nM) of 1.17 and a confluency ([11]; 1000 nM) of 1.35. For the same compound, the confluency ([11]; 10000 nM) was 1.02, the confluency ([12]; 1 nM) was 0.912 and the confluency ([12]; 10 nM) was 0.937. The confluency ([12]; 100 nM) was 1.01, the confluency ([12]; 1000 nM) was 0.992 and the confluency ([12]; 10000 nM) was 0.978. The confluency ([13]; 1 nM) was 0.974, the confluency ([13]; 10 nM) was 0.886 and the confluency ([13]; 100 nM) was 1.04. For the same compound, the confluency ([13]; 1000 nM) was 1.26, the confluency ([13]; 10000 nM) was 1.21 and the confluency ([14]; 1 nM) was 1.2. The confluency ([14]; 10 nM) was 1.02, the confluency ([14]; 100 nM) was 1.29 and the confluency ([14]; 1000 nM) was 1.13. The confluency ([14]; 10000 nM) was 0.869, the confluency ([15]; 1 nM) was 1.19 and the confluency ([15]; 10 nM) was 0.473. For the same compound, the confluency ([15]; 100 nM) was 1.08, the confluency ([15]; 1000 nM) was 0.774 and the confluency ([15]; 10000 nM) was 0.932.

`Nc1cc(F)ccc1NC(=O)c1ccc(CNC(=O)C=Cc2cccnc2)cc1` [Tucidinostat] gave a cytotoxicity ([2]; 1 nM) of 1.08, a cytotoxicity ([2]; 10 nM) of 0.992 and a cytotoxicity ([2]; 100 nM) of 0.929. It also gave a cytotoxicity ([2]; 1000 nM) of 0.871, a cytotoxicity ([2]; 10000 nM) of 0.987 and a cytotoxicity ([4]; 1 nM) of 1.13. For the same compound, the cytotoxicity ([4]; 10 nM) was 1.05, the cytotoxicity ([4]; 100 nM) was 1.42 and the cytotoxicity ([4]; 1000 nM) was 1.19. It also gave a cytotoxicity ([4]; 10000 nM) of 0.636, a metabolic activity ([7]; 1 nM) of 0.891 and a metabolic activity ([7]; 10 nM) of 0.945. For the same compound, the metabolic activity ([7]; 100 nM) was 0.974, the metabolic activity ([7]; 1000 nM) was 0.952 and the metabolic activity ([7]; 10000 nM) was 0.882. It also gave a metabolic activity ([9]; 1 nM) of 0.862, a metabolic activity ([9]; 10 nM) of 1.05 and a metabolic activity ([9]; 100 nM) of 0.872. For the same compound, the metabolic activity ([9]; 1000 nM) was 0.881, the metabolic activity ([9]; 10000 nM) was 0.697 and the confluency ([12]; 1 nM) was 1. The confluency ([12]; 10 nM) was 0.981, the confluency ([12]; 100 nM) was 0.912 and the confluency ([12]; 1000 nM) was 0.878. For the same compound, the confluency ([12]; 10000 nM) was 1.03, the confluency ([14]; 1 nM) was 1.08 and the confluency ([14]; 10 nM) was 1.18. The confluency ([14]; 100 nM) was 1.3, the confluency ([14]; 1000 nM) was 1.26 and the confluency ([14]; 10000 nM) was 0.617.

`O=C(CCCCCCC(=O)Nc1ccccc1)NO` [Vorinostat] gave a metabolic activity ([6]; 1 nM) of 0.849, a metabolic activity ([6]; 10 nM) of 0.979 and a metabolic activity ([6]; 100 nM) of 0.964. It also gave a metabolic activity ([6]; 1000 nM) of 0.945, a metabolic activity ([6]; 10000 nM) of 0.788 and a metabolic activity ([7]; 1 nM) of 0.947. The metabolic activity ([7]; 10 nM) was 0.907, the metabolic activity ([7]; 100 nM) was 0.815 and the metabolic activity ([7]; 1000 nM) was 0.809. The metabolic activity ([7]; 10000 nM) was 0.764, the metabolic activity ([9]; 1 nM) was 0.859 and the metabolic activity ([9]; 10 nM) was 0.862. The metabolic activity ([9]; 100 nM) was 0.902, the metabolic activity ([9]; 1000 nM) was 1.02 and the metabolic activity ([9]; 10000 nM) was 0.913. It also gave a confluency ([12]; 1 nM) of 1.03, a confluency ([12]; 10 nM) of 1 and a confluency ([12]; 100 nM) of 1.14. For the same compound, the confluency ([12]; 1000 nM) was 1.11 and the confluency ([12]; 10000 nM) was 1.36.

Work on `COC1CCC(N2C(=O)CNc3ncc(-c4ccc(C(C)(C)O)nc4)nc32)CC1` (stereo not given) [Onatasertib] yielded a cytotoxicity ([2]; 1 nM) of 1.12, a cytotoxicity ([2]; 10 nM) of 1.07 and a cytotoxicity ([2]; 100 nM) of 1.11. The cytotoxicity ([2]; 1000 nM) was 0.859, the cytotoxicity ([2]; 10000 nM) was 0.586 and the metabolic activity ([7]; 1 nM) was 0.857. It also gave a metabolic activity ([7]; 10 nM) of 0.964, a metabolic activity ([7]; 100 nM) of 0.935 and a metabolic activity ([7]; 1000 nM) of 0.881. The metabolic activity ([7]; 10000 nM) was 0.73, the confluency ([12]; 1 nM) was 1.12 and the confluency ([12]; 10 nM) was 1.05. The confluency ([12]; 100 nM) was 1.07, the confluency ([12]; 1000 nM) was 0.9 and the confluency ([12]; 10000 nM) was 0.675.

Compound `COc1c(OCCCN2CCOCC2)ccc2c3n(c(=NC(=O)c4cnc(N)nc4)nc12)CCN3` [Copanlisib] has a cytotoxicity ([2]; 1 nM) of 0.843, a cytotoxicity ([2]; 10 nM) of 1.05 and a cytotoxicity ([2]; 100 nM) of 0.885. The cytotoxicity ([2]; 1000 nM) was 0.619, the cytotoxicity ([2]; 10000 nM) was 0.712 and the metabolic activity ([7]; 1 nM) was 1.04. The metabolic activity ([7]; 10 nM) was 1.06, the metabolic activity ([7]; 100 nM) was 0.753 and the metabolic activity ([7]; 1000 nM) was 0.523. It also gave a metabolic activity ([7]; 10000 nM) of 0.435, a confluency ([12]; 1 nM) of 0.918 and a confluency ([12]; 10 nM) of 1.05. The confluency ([12]; 100 nM) was 0.903, the confluency ([12]; 1000 nM) was 0.789 and the confluency ([12]; 10000 nM) was 0.932.

`CC(C)(C)c1cnc(CSc2cnc(NC(=O)C3CCNCC3)s2)o1` [SNS-032] showed a cytotoxicity ([2]; 1 nM) of 1.06, a cytotoxicity ([2]; 10 nM) of 1.06 and a cytotoxicity ([2]; 100 nM) of 1.06. For the same compound, the cytotoxicity ([2]; 1000 nM) was 0.66, the cytotoxicity ([2]; 10000 nM) was 0.657 and the metabolic activity ([7]; 1 nM) was 0.778. It also gave a metabolic activity ([7]; 10 nM) of 0.953, a metabolic activity ([7]; 100 nM) of 0.979 and a metabolic activity ([7]; 1000 nM) of 0.192. For the same compound, the metabolic activity ([7]; 10000 nM) was 0.167, the confluency ([12]; 1 nM) was 1.13 and the confluency ([12]; 10 nM) was 1.09. The confluency ([12]; 100 nM) was 1.08, the confluency ([12]; 1000 nM) was 1.13 and the confluency ([12]; 10000 nM) was 1.17.

`CC(C)(C)c1nc(-c2cccc(NS(=O)(=O)c3c(F)cccc3F)c2F)c(-c2ccnc(N)n2)s1` [Dabrafenib] was tested, and the cytotoxicity ([2]; 1 nM) was 0.941, the cytotoxicity ([2]; 10 nM) was 0.994 and the cytotoxicity ([2]; 100 nM) was 0.966. The cytotoxicity ([2]; 1000 nM) was 0.846, the cytotoxicity ([2]; 10000 nM) was 0.863 and the metabolic activity ([7]; 1 nM) was 0.973. It also gave a metabolic activity ([7]; 10 nM) of 1.02, a metabolic activity ([7]; 100 nM) of 0.992 and a metabolic activity ([7]; 1000 nM) of 0.91. For the same compound, the metabolic activity ([7]; 10000 nM) was 0.73, the confluency ([12]; 1 nM) was 0.98 and the confluency ([12]; 10 nM) was 1. It also gave a confluency ([12]; 100 nM) of 0.973, a confluency ([12]; 1000 nM) of 0.971 and a confluency ([12]; 10000 nM) of 0.965.
